Series [1] has as its system mitochondria isolated from NRVMs. The experiment in a line: Mitochondrial swelling assay (Ca2+-induced mPTP opening). Format: cell-based, rat. The settings on record: 50 μM compound, Ca2+ 250 μM. As for the experimental part:
NRVMs were homogenized in ice-cold mitochondrial isolation buffer (10 mM sucrose, 200 mM mannitol, 5 mM HEPES, and 1 mM EGTA, pH 7.4) containing 1 mg/mL fatty acid-free bovine serum albumin. The homogenate was centrifuged for 10 minutes at 1000×g, and the supernatant was centrifuged again at 14,000×g for 10 minutes. The mitochondrial pellets were washed twice and centrifuged at 11,200×g. The isolated mitochondria (1 mg protein) were added to 0.2 mL of buffer mitochondrial swelling buffer (70 mM sucrose, 230 mM mannitol, 3 mM HEPES, 2 mM Trisphosphate, 5 mM succinate). Mitochondrial swelling was measured by decrease in absorbance at 540 nm after addition of Ca^2+ (250 μM). To study the protective effect of C-2 and Ru360, mitochondrial swelling assay was performed in mitochondria treated with or without the compounds (50 μM).
Additionally, the swelling of mitochondria isolated from NRVMs subjected to H/R injury in the absence or presence of C-2 or Ru360 was monitored. After baseline measurement of the absorbance at 600 nm, a single bolus of Ca^2+ (250 μM) was added to induce mPTP opening. As known, the decrease in mitochondrial absorbance indicates mitochondrial swelling and subsequent mPTP opening.

Series [2] concerns neonatal rat ventricular myocytes (NRVMs). The experiment in a line: Hypoxia/reoxygenation injury in neonatal rat ventricular myocytes (ΔΨm and mCa2+ uptake). The series is classed as cell-based. The settings on record: 50 μM, 16 hours hypoxia, 8 hours reoxygenation. As for the experimental part:
Freshly isolated NRVMs were subjected to 16 hours of hypoxia (5% O2-5% CO2) followed by 8 hours of reoxygenation (20% O2-5% CO2). To study the protective effect of C-2, HIR was induced in NRVMs pretreated with or without C-2 (50 μM).
An equal number of NRVMs (6×10^6 cells) were washed in Ca^2+ free PBS, pH 7.4, resuspended and permeabilized with 40 μg/ml digitonin in 1.5 mL of intracellular medium (ICM) composed of 120 mM KCl, 10 mM NaCl, 1 mM KH2PO4, 20 mM Hepes-Tris, pH 7.2 and 2 μM thapsigargin to block the SERCA pump. All measurements were performed in the presence of 2 mM succinate. The simultaneous measurement of mitochondrial membrane potential (ΔΨm) and extra-mitochondrial Ca^2+([Ca^2+]) clearance were measured as above by using the JC-1 and Fura2-FF dyes. A series of extra-mitochondrial Ca^2+ bolus (10 μM) was added and mitochondrial uncoupler, CCCP (2 μM), were added at the indicated time points. All the experiments were performed at 37° C. with constant stirring.
Given the Ca^2+ uptake inhibiting properties and low toxicity of C-2, C-2 was studied for its possible ability to protect cardiomyocytes from the mCa^2+ overload that occurs during hypoxia/reoxygenation (I-H/R) injury and prevent mPTP opening and mitochondrial swelling. Freshly isolated neonatal rat ventricular myocytes (NRVMs) treated with C-2 (50 μM) were subjected to 16 hours of hypoxia (1% O2-5% CO2), followed by 8 hours of reoxygenation (21% O2-5% CO2). Untreated NRVMs served as controls. After H/R injury, NRVMs were permeabilized and loaded with the JC-1 and Fura-FF to simultaneously measure ΔΨm and mCa^2+ uptake.

A further series concerns HEK293 cells. Put plainly: MTT cytotoxicity assay. The series is classed as cell-based, human. As for the experimental part:
HEK293 (human embryonic kidney cells were obtained from American Type Culture Collection (ATCC, Washington D.C.) and cultured as adherent monolayers in a humidified 5% CO2 atmosphere at 37° C. in Minimum Essential Media supplemented with 10% fetal bovine serum (FBS) and 100 U/mL penicillin/streptomycin. HeLa cells were cultured in Dulbecco's Modified Eagle's Medium (DMEM) supplemented with 10% FBS and 100 U/mL penicillin/streptomycin. Cells were checked for contamination monthly using the PlasmoTest™ mycoplasma detection kit. Ventricular cardiomyocytes were isolated from neonatal rats (NRVMs) as previously described (H. M. Piper et al., Piper H. M. (eds), Cell Culture Techniques in Heart and Vessel Research, Springer Verlag: Berlin, 1990). The isolated myocytes were cultured in Ham's F-10 supplemented with 5%/o fetal bovine serum (FBS) and penicillin/streptomycin (100 U/ml) at 37° C. in a 95% air/5% CO2 humidified atmosphere for four days
Cells were seeded at 4000 cells/well in 100 μL/well in a 96-well plate and incubated for 24 hours. The media was removed and replaced with 200 μL of growth media containing varying concentrations of the complex. After 72 hours of incubation, the media was replaced with MEM containing 1 mg/mL of (4,5-dimethylthiazol-2-yl)-2,5-diepheyltetrazolium bromide (MTT). After four hours incubation, the media was removed and the purple formazan crystals were solubilized using 100 μL of a 8/1 DMSO/glycine buffer (pH 10) mixture. The absorbance at 570 nm was measured using a plate reader.
With the new nitrido-bridged ruthenium compounds C-2 and C-3 prepared, MCU-inhibitory properties of these compounds were evaluated and their activities compared to C-1, the oxo-bridged Ru360 analogue of the conventional art (S. R. Nathan et al., Inorg. Chem. 2017, 56, 3123-3126 and S. R. Nathan et al., J. Vis. Exp. 2017, 56527). The cytotoxicity of the complexes in HEK293 cells was first measured using the colorimetric thiazolyl blue tetrazolium bromide (MTT) assay, as well known in the art. […]

The values that follow come from patent US11154569B2, “Ruthenium μ-nitrido complexes and their use as calcium uptake inhibitors” (CORNELL UNIVERSITY, priority 2018, dated 2021).

A word on the IC50: it is the concentration at which inhibition is half-maximal.

Consider `N.N.N.N.N.N.N.N.[Cl-].[Cl-].[N-3].[Ru+4].[Ru+4]` [C-2, [Ru2(μ-N)(NH3)8Cl2]Cl3], for which, in series [1], the “mitochondrial swelling (decrease in absorbance after Ca2+ addition)” value is “no decrease in absorbance was observed”. Also, in series [2], the “mCa2+ uptake after H/R injury” value is given as “complete ablation of mCa^2+ uptake” and the “ΔΨm after H/R injury” value is “no loss of ΔΨm”. In addition, the “toxicity to human cells” value with HEK293 cells is recorded as “low toxicity to human cells”.
For `N.N.N.N.N.N.N.N.O=C[O-].O=C[O-].[O-2].[Ru+3].[Ru+4]` [Ru360, reference compound], the “mitochondrial swelling (decrease in absorbance after Ca2+ addition)” value in series [1] is given as “no decrease in absorbance was observed”. Moreover, in series [2], the “ΔΨm after H/R injury” value is “did not prevent H/R-mediated ΔΨm dissipation”.
In the series with HEK293 cells, [Ru2(μ-N)(en)4Cl2]Cl3 [C-3] yielded a concentration for half-maximal inhibition (IC50) of 226 ± 19 µM.
